Results reported in US20240032530A1, “BLOOD SAMPLER CONTAINING ANTI-PLATELET AGENT AND WATER-SOLUBLE MATRIX MATERIAL” (Radiometer Medical ApS, priority 2020, published 2024).

Test system: platelets (PLT) in whole blood
Assay: Whole blood stability: PLT concentration on Sysmex XN-9000 hematology analyzer
Format: cell-based, healthy volunteers
Settings: FIG. 8; formulated with PVP (Mw 10′000)/Tris matrix, 1 μM in whole blood, with Hep brick or LiHep tube, analyzed within 6 hours, three donors
Description: For storage stability and whole blood stabilization testing, the tubes were sprayed with 10 μL each of the mixture (D) using an ExactaCoat from Sono-Tek for ultrasonic spraying. And tubes were evacuated after spraying in order to allow filling of 3 mL whole blood during blood drawing via venipuncture.
Tubes with sprayed anti-platelet agents Iloprost, Beraprost sodium and Treprostinil each formulated with a PVP (Mw 10′000)/Tris matrix were prepared by ultrasonic spraying as described above. Spraying was done into either 1) tubes with no additive and after spraying, a heparinized filter paper brick (Hep brick) was added to the tube; or 2) spraying was conducted into commercial Lithium Heparin tubes (LiHep). The formulations were prepared to achieve a final anti-platelet agent concentration of 1 μM in whole blood. After preparation, tubes were evacuated and lids closed in order to allow drawing of correct whole blood volume during venipuncture. Blood from three different healthy volunteers were drawn into prepared blood collection tubes and reference standard EDTA and Lithium Heparin (LiHep) tubes. Whole blood samples were analyzed with a Sysmex XN-9000 hematology analyzer within 6 hours after blood sample drawing.
The Y-axis is the normalized PLT concentration relative to the EDTA sample.

Compound | anti-platelet activity (normalized PLT concentration relative to the EDTA sample)
CC#CCC(C)[C@H](O)/C=C/[C@@H]1[C@H]2c3cccc(CCCC(=O)O)c3O[C@H]2C[C@H]1O (mixture of isomers) [Beraprost, Beraprost sodium] | as high as that of EDTA
CC#CCC(C)[C@H](O)/C=C/[C@@H]1[C@H]2C/C(=C/CCCC(=O)O)C[C@H]2C[C@H]1O (stereo partly drawn) [Iloprost, iloprost] | as high as that of EDTA
CCCCC[C@H](O)CC[C@@H]1[C@H]2Cc3cccc(OCC(=O)O)c3C[C@H]2C[C@H]1O [Treprostinil] | as high as that of EDTA
